{
  "source": "patent US20120039905A1",
  "about": "“The Role of p110 delta Signaling in Morbidity and Lung Pathology Induced by Influenza Virus Infection” (priority 2009, published 2012)",
  "key": {"[1]": {"tested_on": "influenza virus strain PR8", "assay_type": "cell-based"}, "[2]": {"tested_on": "H7N7 A/Equine/London/1416/73 influenza virus strain", "set-up": "species or system mice", "details": "mouse, in vivo"}},
  "note": "Entries after “also recorded” stand apart in the source; their conditions may differ.",
  "data": [
    {"smiles": "Cc1ccccc1-n1c(Cn2cnc3c(N)ncnc32)nc2cccc(C)c2c1=O", "note": "[IC87114]", "values": [
      {"measurement": "reduction of viral mRNA production compared to untreated cells", "setting": "[1]", "value": "~25", "unit": "fold"},
      {"measurement": "influenza virus replication (specific RT-PCR)", "setting": "[1]; 100 μM", "value": "inhibits influenza virus replication"},
      {"measurement": "survival after lethal challenge", "setting": "[2]", "value": "increased survival; also recorded: protects mice lethally challenged"}
    ]}
  ]
}
